Data from patent US20220125765A1, “PHARMACEUTICAL COMBINATIONS COMPRISING MEBENDAZOLE AND A STRONG OR MODERATE CYP1A2 INHIBITOR” (ZEPHAPHARM LTD, priority 2019, published 2022).

How the values were obtained:
CYP1A2 = biological target: T1, CYP1A2 (Homo sapiens, UniProt P05177); experiment: Cytochrome P450 reaction phenotyping, recombinant CYP1A2 (Bactosomes); conditions: for Compound Remaining (% of 0 min): CYP1A2, 5 μM
T1 sequence (P05177 1-516): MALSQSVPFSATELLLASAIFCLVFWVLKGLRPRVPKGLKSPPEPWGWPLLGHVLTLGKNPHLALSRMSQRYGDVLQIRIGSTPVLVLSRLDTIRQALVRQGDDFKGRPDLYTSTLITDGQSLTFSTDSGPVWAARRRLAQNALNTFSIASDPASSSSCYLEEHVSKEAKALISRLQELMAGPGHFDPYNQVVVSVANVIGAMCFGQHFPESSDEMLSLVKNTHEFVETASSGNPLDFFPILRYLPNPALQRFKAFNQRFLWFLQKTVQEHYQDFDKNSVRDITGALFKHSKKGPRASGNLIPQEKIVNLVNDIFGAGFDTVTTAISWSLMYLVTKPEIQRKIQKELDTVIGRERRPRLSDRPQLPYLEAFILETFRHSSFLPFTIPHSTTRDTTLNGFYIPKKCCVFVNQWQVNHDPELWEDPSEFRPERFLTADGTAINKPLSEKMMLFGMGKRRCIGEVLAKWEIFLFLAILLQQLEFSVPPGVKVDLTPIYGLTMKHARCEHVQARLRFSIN
Experimental: Incubations were also performed using control Bactosomes™ (no P450 enzymes present) to reveal any non-enzymatic degradation. Control compounds known to be metabolised specifically by each P450 isoform were included. All incubations were performed singularly for each test compound.
Incubations were also performed using control Bactosomes™ (no P450 enzymes present) to reveal any non-enzymatic degradation. Control compounds known to be metabolised specifically by each P450 isoform were included. All incubations were performed singularly for each test compound. […] The reactions were stopped by transferring an aliquot of incubate to quench solvent at the appropriate time points, in a 1:3 ratio. The termination plates were centrifuged at 3,000 rpm for 20 min at 4° C. to precipitate the protein.

[1] = biological target: T2, human OATP1B3 transporter (Homo sapiens, UniProt Q9NPD5); experiment: Uptake into OATP1B3 and empty vector transfected HEK293 cells; type: in vitro ADME; conditions: for Uptake rate Mean: 2 min; for Uptake ratio: OATP1B3 vs control
T2 construct: expressed in transfected cells; host or cells: HEK293 (transient transfection)
T2 sequence (Q9NPD5 1-702): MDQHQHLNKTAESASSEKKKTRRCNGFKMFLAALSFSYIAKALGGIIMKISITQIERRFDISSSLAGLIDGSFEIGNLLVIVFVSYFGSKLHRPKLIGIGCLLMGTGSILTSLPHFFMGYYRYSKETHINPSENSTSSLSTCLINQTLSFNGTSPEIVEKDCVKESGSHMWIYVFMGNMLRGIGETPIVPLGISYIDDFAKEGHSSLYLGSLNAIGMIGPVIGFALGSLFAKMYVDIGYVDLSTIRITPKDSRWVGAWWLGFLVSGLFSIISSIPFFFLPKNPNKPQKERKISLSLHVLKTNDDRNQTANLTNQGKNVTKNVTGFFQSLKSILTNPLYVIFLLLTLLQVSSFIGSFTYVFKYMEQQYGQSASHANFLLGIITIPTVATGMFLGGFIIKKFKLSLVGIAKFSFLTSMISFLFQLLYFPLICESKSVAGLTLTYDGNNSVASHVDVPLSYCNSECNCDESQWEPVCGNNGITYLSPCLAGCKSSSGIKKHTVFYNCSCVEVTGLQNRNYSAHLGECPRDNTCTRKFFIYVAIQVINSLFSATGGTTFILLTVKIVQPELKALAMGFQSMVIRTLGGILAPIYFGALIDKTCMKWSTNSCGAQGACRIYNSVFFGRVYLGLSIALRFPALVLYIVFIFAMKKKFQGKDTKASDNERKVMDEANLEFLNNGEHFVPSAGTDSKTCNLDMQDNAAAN
Experimental: Test compound (at 1 and 10 μM) was incubated with both SLC transporter-expressing HEK293 cells and control (empty vector) HEK293 cells for 2 min.

Compound Remaining (% of 0 min) (CYP1A2; 0 min): 100 % of 0 min
Compound Remaining (% of 0 min) (CYP1A2; 5 min): 80.1 % of 0 min
Compound Remaining (% of 0 min) (CYP1A2; 15 min): 45.8 % of 0 min
Compound Remaining (% of 0 min) (CYP1A2; 30 min): 20.7 % of 0 min
Compound Remaining (% of 0 min) (CYP1A2; 45 min): 9.88 % of 0 min
half-life at 5 μM (CYP1A2; human, recombinant CYP1A2 (Bactosomes), pH 7.4): 13.3 min
Uptake rate Mean ([1]; 1 μM, OATP1B3 HEK293 cells): 56.6 pmol/mg
Uptake ratio ([1]; 1 μM): 1.1
Uptake rate Mean ([1]; 1 μM, control (empty vector) HEK293 cells): 50.1 pmol/mg
Uptake rate Mean ([1]; 10 μM, OATP1B3 HEK293 cells): 466 pmol/mg
Uptake ratio ([1]; 10 μM): 1.1
Uptake rate Mean ([1]; 10 μM, control (empty vector) HEK293 cells): 414 pmol/mg
substrate of the human OATP1B3 transporter ([1]; 1 and 10 μM): not a substrate
Structure (SMILES): COC(=O)Nc1nc2ccc(C(=O)c3ccccc3)cc2[nH]1 [Mebendazole, methyl N-(6-benzoyl-1H-benzimidazol-2-yl)carbamate]
